Reference: patent publication US20240150293A1, “SPIROCYCLOHEXANE DERIVATIVES, PHARMACEUTICAL COMPOSITIONS CONTAINING THEM AND THEIR USES AS ANTI-APOPTOTIC INHIBITORS” (LES LABORATOIRES SERVIER, priority 2021, published 2024)

What follows are compounds tested against Mcl-1 protein (UniProtKB Q07820) (Homo sapiens (Human), UniProt Q07820) (assay: Inhibition of Mcl-1 by the fluorescence polarisation assay (Example A, Method A)). Conditions: fluorescence polarization assay.
Assay type: binding
How it was run: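 Protein (5 nM) and fluorescein-tagged peptide tracer (1 nM) incubated with 11-point compound series for 2 h at room temperature in HEPES/NaCl/Tween 20 buffer, pH 7.4, 5% DMSO. Displacement read as decrease in polarisation; IC50 fitted by 4-parameter logistic, converted to Ki (cKi or eKi).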

Mcl-1 protein, sequence (Q07820 whole entry): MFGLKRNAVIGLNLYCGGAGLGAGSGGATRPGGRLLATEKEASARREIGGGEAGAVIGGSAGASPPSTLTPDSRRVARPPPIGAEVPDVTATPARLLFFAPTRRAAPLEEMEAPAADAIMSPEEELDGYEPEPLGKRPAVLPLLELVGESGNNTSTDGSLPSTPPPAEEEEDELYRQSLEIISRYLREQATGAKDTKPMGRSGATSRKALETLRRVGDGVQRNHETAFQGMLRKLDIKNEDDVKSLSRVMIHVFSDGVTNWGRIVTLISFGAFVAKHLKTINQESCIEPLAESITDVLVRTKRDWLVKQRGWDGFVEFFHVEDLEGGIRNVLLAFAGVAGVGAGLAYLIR

Compound | Ki [µM]
O=C(O)C1(Nc2cccc(Cl)c2)CCC2(C=Cc3cccnc32)CC1 (single isomer, unassigned) [Example 72, 4-(3-chloroanilino)spiro[cyclohexane-1,7′-cyclopenta[b]pyridine]-4-carboxylic acid] | 191
O=C(O)C1(Nc2cccc(Br)c2)CCC2(CC1)c1ccccc1CC2CCc1ccccc1 (racemic) [Example 201, 4-(3-bromoanilino)-2′-(2-phenylethyl)-2′,3′-dihydrospiro[cyclohexane-1,1′-indene]-4-carboxylic acid] | 1.53
O=C(O)[C@]1(Nc2cccc(Cl)c2)CC[C@@]2(CC1)c1ccccc1CC2[C@H]1C[C@@H]1COc1ccnc2ccsc12 (single isomer, unassigned) [Example 105, (1r,4r)-4-(3-chloroanilino)-2′-[(1R*,2S*)-2-{[(thieno[3,2-b]pyridin-7-yl)oxy]methyl}cyclopropyl]-2′,3′-dihydrospiro[cyclohexane-1,1′-indene]-4-carboxylic acid] | 3.7
O=C(O)[C@]1(Nc2cccc(Cl)c2)CC[C@]2(CC1)C(I)=Cc1ccccc12 [Example 76, (1s,4s)-4-(3-chloroanilino)-2′-iodospiro[cyclohexane-1,1′-indene]-4-carboxylic acid] | 0.284
COCCCC1Cc2ccccc2[C@]12CC[C@@](Nc1cccc(Cl)c1)(C(=O)O)CC2 (stereo partly shown) [Example 197, (1r,4r)-4-(3-chloroanilino)-2′-(3-methoxypropyl)-2′,3′-dihydrospiro[cyclohexane-1,1′-indene]-4-carboxylic acid] | 1.38
O=C(O)[C@]1(Nc2cccc(Cl)c2)CC[C@@]2(CC1)c1ccccc1CC2[C@H]1C[C@@H]1COc1ccccc1 (relative stereo) [Example 111, (1r,4r)-4-(3-chloroanilino)-2′-[(1R*,2S*)-2-(phenoxymethyl)cyclopropyl]-2′,3′-dihydrospiro[cyclohexane-1,1′-indene]-4-carboxylic acid] | 9.68
O=C(O)C1(Nc2cccc(Cl)c2)CCC2(CC1)c1ccccc1-c1ccccc12 [Example 118, 4-(3-chloroanilino)spiro[cyclohexane-1,9′-fluorene]-4-carboxylic acid] | 3.99
O=C(O)C1(Nc2cccc(Br)c2)CCC2(C=Cc3cccc(Br)c32)CC1 (single isomer, unassigned) [Example 59, 7′-bromo-4-(3-bromoanilino)spiro[cyclohexane-1,1′-indene]-4-carboxylic acid] | 4.21
O=C(O)[C@]1(Nc2cccc(Cl)c2)CC[C@@]2(C=Cc3ccccc32)CC1 [Example 64, (1r,4r)-4-(3-chloroanilino)spiro[cyclohexane-1,1′-indene]-4-carboxylic acid] | 0.735
Cc1cnccc1OCCC1=Cc2ccccc2[C@]12CC[C@@](Nc1cccc(Cl)c1)(C(=O)O)CC2 [Example 189, (1r,4r)-4-(3-chloroanilino)-2′-{2-[(3-methylpyridin-4-yl)oxy]ethyl}spiro[cyclohexane-1,1′-indene]-4-carboxylic acid] | 0.121
O=C(O)C1(Nc2cccc(Br)c2)CCC2(CC1)C(=O)N1CCCc3cc(Br)cc2c31 (single isomer, unassigned) [Example 14, 8′-bromo-4-(3-bromoanilino)-2′-oxo-5′,6′-dihydro-2′H,4′H-spiro[cyclohexane-1,1′-pyrrolo[3,2,1-ij]quinoline]-4-carboxylic acid] | 5.2
O=C(O)[C@]1(Nc2cccnc2)CC[C@]2(CC1)C(Br)=Cc1ccccc12 [Example 87, (1s,4s)-2′-bromo-4-[(pyridin-3-yl)amino]spiro[cyclohexane-1,1′-indene]-4-carboxylic acid] | 4.38
Cc1ccc(S(=O)(=O)N2Cc3ccccc3C23CCC(Nc2cccc(Cl)c2)(C(=O)O)CC3)cc1 (single isomer, unassigned) [Example 28, 4-(3-chloroanilino)-2′-(4-methylbenzene-1-sulfonyl)-2′,3′-dihydrospiro[cyclohexane-1,1′-isoindole]-4-carboxylic acid] | 14.8
O=C(O)[C@]1(Nc2cccc(Br)c2)CC[C@@]2(CC1)c1ccccc1CC2CCc1ccccn1 (stereo partly shown) [Example 175, (1r,4r)-4-(3-bromoanilino)-2′-[2-(pyridin-2-yl)ethyl]-2′,3′-dihydrospiro[cyclohexane-1,1′-indene]-4-carboxylic acid] | 1.54

Continued, values first:

Ki [µM] | Compound
36.7 | CC1(C)[C@H]2C=C(C3=Cc4ccccc4[C@]34CC[C@@](Nc3cccc(Cl)c3)(C(=O)O)CC4)[C@]1(C)CC2 [Example 276, (1s,4S)-4-(3-chloroanilino)-2′-[(1R,4R)-1,7,7-trimethylbicyclo[2.2.1]hept-2-en-2-yl]spiro[cyclohexane-1,1′-indene]-4-carboxylic acid]
5.02 | Cc1ccc(C2Cc3ccccc3C23CCC(Nc2cccc(Br)c2)(C(=O)O)CC3)s1 (single isomer, unassigned) [Example 263, 4-(3-bromoanilino)-2′-(5-methylthiophen-2-yl)-2′,3′-dihydrospiro[cyclohexane-1,1′-indene]-4-carboxylic acid]
0.096 | O=C(O)[C@]1(Nc2cccc(Cl)c2)CC[C@@]2(CC1)c1ccccc1CC2CCCOc1ccnc2c1CCCC2O (stereo partly shown) [Example 474, (1r,4r)-4-(3-chloroanilino)-2′-{3-[(8-hydroxy-5,6,7,8-tetrahydroquinolin-4-yl)oxy]propyl}-2′,3′-dihydrospiro[cyclohexane-1,1′-indene]-4-carboxylic acid]
0.0819 | O=C(O)[C@]1(Nc2cccc(Cl)c2)CC[C@@]2(CC1)c1ccccc1CC2CCCOc1ccnc2c1CCCC2F (stereo partly shown) [Example 473, (1r,4r)-4-(3-chloroanilino)-2′-{3-[(8-fluoro-5,6,7,8-tetrahydroquinolin-4-yl)oxy]propyl}-2′,3′-dihydrospiro[cyclohexane-1,1′-indene]-4-carboxylic acid]
0.164 | CC(F)(COc1ccnc2c1CCC2)CC1Cc2ccccc2[C@]12CC[C@@](Nc1cccc(Cl)c1)(C(=O)O)CC2 (stereo partly shown) [Example 607, (1r,4r)-4-(3-chloroanilino)-2′-{3-[(6,7-dihydro-5H-cyclopenta[b]pyridin-4-yl)oxy]-2-fluoro-2-methylpropyl}-2′,3′-dihydrospiro[cyclohexane-1,1′-indene]-4-carboxylic acid]
11.2 | O=C(O)[C@]1(Nc2cccc(Cl)c2)CC[C@@]2(CC1)c1ccccc1CC2c1cccc(Cl)c1 (single isomer, unassigned) [Example 344, (1r,4r)-4-(3-chloroanilino)-2′-(3-chlorophenyl)-2′,3′-dihydrospiro[cyclohexane-1,1′-indene]-4-carboxylic acid]
4.79 | O=C(O)[C@]1(Nc2cccc(Cl)c2)CC[C@]2(CC1)C(c1cc3cc(-c4ccncc4)ccc3o1)=Cc1ccccc12 [Example 375, (1s,4s)-4-(3-chloroanilino)-2′-[5-(pyridin-4-yl)-1-benzofuran-2-yl]spiro[cyclohexane-1,1′-indene]-4-carboxylic acid]
0.779 | O=C(O)C1(Nc2cccc(Br)c2)CCC2(CC1)c1ccccc1CC2c1ccc(OCc2ccccc2)cc1 (stereo not shown) [Example 244, 2′-[4-(benzyloxy)phenyl]-4-(3-bromoanilino)-2′,3′-dihydrospiro[cyclohexane-1,1′-indene]-4-carboxylic acid]
0.187 | CC[C@H](COc1ccncc1)C[C@H]1Cc2ccccc2[C@]12CC[C@@](Nc1cccc(Cl)c1)(C(=O)O)CC2 [Example 542]
17.5 | O=C(O)[C@]1(Nc2cccc(Cl)c2)CC[C@]2(CC1)C(C1=CCN(Cc3ccccc3)CC1)=Cc1ccccc12 [Example 360, (1r,4r)-2′-(1-benzyl-1,2,3,6-tetrahydropyridin-4-yl)-4-(3-chloroanilino)spiro[cyclohexane-1,1′-indene]-4-carboxylic acid]
5.27 | COc1ccc(C)c(C2=Cc3ccccc3[C@]23CC[C@@](Nc2cccc(Cl)c2)(C(=O)O)CC3)c1 [Example 252, (1s,4s)-4-(3-chloroanilino)-2′-(5-methoxy-2-methylphenyl)spiro[cyclohexane-1,1′-indene]-4-carboxylic acid]
2 | O=C(O)[C@]1(Nc2cccc(Cl)c2)CC[C@]2(CC1)C(c1cccc(Cl)c1)=Cc1ccccc12 [Example 334, (1s,4s)-4-(3-chloroanilino)-2′-(3-chlorophenyl)spiro[cyclohexane-1,1′-indene]-4-carboxylic acid]
7.78 | CN(CCc1ccncc1)C(=O)C1Cc2ccccc2[C@]12CC[C@@](Nc1cccc(Cl)c1)(C(=O)O)CC2 (single isomer, unassigned) [Example 404, (1r,4r)-4-(3-chloroanilino)-2′-{methyl[2-(pyridin-4-yl)ethyl]carbamoyl}-2′,3′-dihydrospiro[cyclohexane-1,1′-indene]-4-carboxylic acid]
0.159 | O=C(O)C1(Nc2cccc(Cl)c2)CCC2(CC1)c1ccccc1CC2CCCOc1ncnc2c1CCCC2 (stereo not shown) [Example 460, (1r,4r)-4-(3-chloroanilino)-2′-{3-[(5,6,7,8-tetrahydroquinazolin-4-yl)oxy]propyl}-2′,3′-dihydrospiro[cyclohexane-1,1′-indene]-4-carboxylic acid]
0.0389 | O=C(O)[C@]1(Nc2cccc(Cl)c2)CC[C@@]2(CC1)c1ccccc1CC2CCCOc1ccncc1F (stereo partly shown) [Example 432, (1r,4r)-4-(3-chloroanilino)-2′-{3-[(3-fluoropyridin-4-yl)oxy]propyl}-2′,3′-dihydrospiro[cyclohexane-1,1′-indene]-4-carboxylic acid]
1.1 | O=C(O)[C@]1(Nc2cccc(Cl)c2)CC[C@]2(CC1)C(c1ccc3ccoc3c1)=Cc1ccccc12 [Example 265, (1s,4s)-2′-(1-benzofuran-6-yl)-4-(3-chloroanilino)spiro[cyclohexane-1,1′-indene]-4-carboxylic acid]
13.2 | O=C(O)[C@]1(Nc2cccc(Cl)c2)CC[C@@]2(CC1)c1ccccc1C[C@@H]2c1cccc(OCc2ccccc2)c1 [Example 333, (1r,2′R,4R)-2′-[3-(benzyloxy)phenyl]-4-(3-chloroanilino)-2′,3′-dihydrospiro[cyclohexane-1,1′-indene]-4-carboxylic acid]
